The source of these data is PMC11206525, “Structural Design, Anticancer Evaluation, and Molecular Docking of Newly Synthesized Ni(II) Complexes with ONS-Donor Dithiocarbazate Ligands” (Molecules, 2024).

Read-outs that look alike come from different tables or passages of the source.

Series [1] has as its system human breast cancer cell line MCF-7. The series is described as follows: MTT cytotoxicity assay, breast cancer MCF-7 cells. It counts as cell-based. As to conditions: MCF-7, MTT. The procedure: (§1) The measurement was performed using the MTT assay in cultures treated with increasing concentrations.
(§2) The effect of the compounds applied to breast cancer MCF-7 cells and breast epithelial MCF-10A cells was evaluated by measuring 3-(4,5-dimethylthiazol-2-yl)-2,5-diphenyl tetrazolium bromide (MTT) (Invitrogen, Waltham, MA, USA). All compounds were diluted in dimethylsulfoxide (DMSO) with a final DMSO concentration of 0.01% (0.01 mL/100 mL × 100 = 0.01% means 0.01 mL of DMSO to 99.99 mL of water) in all groups and untreated controls. Cells were seeded in 96-well plates at a density of 5 × 10^3 cells per well and incubated with compounds diluted in serial concentrations ranging from 0.29 µM to 150 µM. After 24, 48, and 72 h at 37 °C and 5% CO2, 10 µL of MTT (5 mg/mL) was added to each well and incubated for 4 h at 37 °C. The supernatant was then removed, and 100 µL/well of DMSO was added to dissolve any deposited formazan. The optical density was measured at 570 nm using a microplate reader (DR-200B-NM_Kasuaki, Tokyo, Japan).
On the technique in general: Tetrazolium dyes change colour on reduction, which living cells bring about.

Series [2] deals with non-malignant breast epithelial cell line MCF-10A. The series is described as follows: MTT cytotoxicity assay, non-malignant MCF-10A cells. It counts as cell-based, human. The procedure: as §1, §2
The next series concerns the cells tested. Also noted: method as in doi:10.1016/j.ica.2017.03.027. As to conditions: related work; cited from earlier work.
The mark [3] stands for this setting: read-out: IC50 (Inhibitory Concentration 50%) ± SD at 24 h, 24 h.
[4] abbreviates: read-out: IC50 (Inhibitory Concentration 50%) ± SD at 48 h, 48 h.

With `C=CCSC1=NN=C(C)c2ccccc2[O][Ni]([P](c2ccccc2)(c2ccccc2)c2ccccc2)[S]1` [(1), [Ni(L^1)PPh3]], the IC50 in series [1] (setting [3]) was 12.82 ± 0.029 µM; in series [1] (setting [4]), 22.71 ± 0.016 µM; in series [1] (read-out: IC50 (Inhibitory Concentration 50%) ± SD at 72 h, 72 h) it was 18.07 ± 0.017 µM; in series [2] (setting [3]), 25.47 ± 0.031 µM; in series [2] (setting [4]) it was 28.43 ± 0.021 µM.
What is called melting point is the temperature, or range, at which the solid turns liquid. For `C=CCSC(=S)N/N=C(\C)c1ccccc1O` [H2L^1, S-Allyl-2-(2-hydroxyphenyl-ethylidene)dithiocarbazato], the melting point worked out at 116 °C. The IC50 in series [1] (Homo sapiens, MCF7, read-out: IC50 (Inhibitory Concentration 50%) ± SD at 24 h, 24 h) was determined as 88.85 ± 0.097 µM. Besides, the IC50 in series [1] (Homo sapiens, MCF7, read-out: IC50 (Inhibitory Concentration 50%) ± SD at 48 h, 48 h) is 87.73 ± 0.042 µM. In addition, the IC50 in series [1] (Homo sapiens, MCF7, read-out: IC50 (Inhibitory Concentration 50%) ± SD at 72 h, 72 h) came to 28.49 ± 0.023 µM. The IC50 in series [2] (Homo sapiens, read-out: IC50 (Inhibitory Concentration 50%) ± SD at 24 h, 24 h) was 65.44 ± 0.034 µM. Also, the IC50 in series [2] (Homo sapiens, read-out: IC50 (Inhibitory Concentration 50%) ± SD at 48 h, 48 h) stood at 62.86 ± 0.013 µM. In addition, in series [2] (Homo sapiens, read-out: IC50 (Inhibitory Concentration 50%) ± SD at 72 h, 72 h), the IC50 stood at 62.86 ± 0.025 µM.
As for `C/C(=N\NC(=S)SCc1ccccc1)c1ccccc1O` [H2L^2, S-Benzyl-2-(2-hydroxyphenyl-ethylidene)dithiocarbazato], the melting point came out at 145 °C.
Turning to `O.O.O.O.O.O.[Cl][Ni][Cl]` [NiCl2⋅6H2O], the “effect on cell proliferation or cell viability” value with the cells tested was “no substantial effect”.
